This assay deals with SK-OV-3 tumor lines. The assay is described as follows: SK-OV-3 tumor in nude mouse, average tumor weight. The format is in vivo. How it is done: 2-Methoxycarbonylamino-4,5,6,7-tetrafluorobenzimidazole (tetrafluoro) was used to treat SK-OV-3 tumor lines in nude mouse. The average tumor weight is reported in mg. The control was the vehicle given twice a week and also 5 times a week. The 2-methoxycarbonyl-amino-4,5,6,7- tetrafluorobenzimidazole was also given on this same schedule. Both compounds were administered by oral gavage.

For `COC(=O)Nc1nc2c(F)c(F)c(F)c(F)c2[nH]1` [Tetrafluoro, 2-Methoxycarbonylamino-4,5,6,7-tetrafluorobenzimidazole], the “Average Tumor Weight” value was determined as 58.5 mg (2000 mg/kg 2x wkly, oral gavage, day 1); 108.1 mg (2000 mg/kg 2x wkly, oral gavage, day 5); 246.8 mg (2000 mg/kg 2x wkly, oral gavage, day 9); 476.2 mg (2000 mg/kg 2x wkly, oral gavage, day 12); 770 mg (2000 mg/kg 2x wkly, oral gavage, day 15); 59.1 mg (2000 mg/kg qdx5, oral gavage, day 1). Moreover, the “Average Tumor Weight” value (2000 mg/kg qdx5, oral gavage, day 5) turned out to be 106.2 mg; the “Average Tumor Weight” value (2000 mg/kg qdx5, oral gavage, day 9) is 255.8 mg; the “Average Tumor Weight” value (2000 mg/kg qdx5, oral gavage, day 12) stood at 381.7 mg; the “Average Tumor Weight” value (2000 mg/kg qdx5, oral gavage, day 15) was 781.2 mg; the “Average Tumor Weight” value (4000 mg/kg 2x wkly, oral gavage, day 1) is listed as 59.5 mg; the “Average Tumor Weight” value (4000 mg/kg 2x wkly, oral gavage, day 5) is 98.6 mg. The “Average Tumor Weight” value worked out at 204 mg (4000 mg/kg 2x wkly, oral gavage, day 9); 336.6 mg (4000 mg/kg 2x wkly, oral gavage, day 12); 672.9 mg (4000 mg/kg 2x wkly, oral gavage, day 15); 59.5 mg (4000 mg/kg qdx5, oral gavage, day 1); 66.1 mg (4000 mg/kg qdx5, oral gavage, day 5); 150.8 mg (4000 mg/kg qdx5, oral gavage, day 9). The “Average Tumor Weight” value is listed as 160.7 mg (4000 mg/kg qdx5, oral gavage, day 12) and 315.8 mg (4000 mg/kg qdx5, oral gavage, day 15). For the same molecule, for the setting “SK-OV-3 tumor, nude mouse, oral gavage”, the “effect on the growth of the tumor” value is listed as “dose responsive effect”.

Values taken from patent US20010047021A1, “Cancer treatment” (The Procter & Gamble Company, priority 2000, published 2001).
